# From patent publication US20170217976A1, “6-(AMINO ACID)-MORPHINAN DERIVATIVES IN COMBINATION WITH PERMEATION […] FOR USE AS AN ORALLY, […], TRA[…] NASALLY AD[…]” (C[…], priority 2014, published 2017)
# Where two headings read alike, the source gives them in different places.
# Assays:
# rats = assay: Tail-flick test in rats after oral administration; format: in vivo, rat; details: for ED50: Rattus norvegicus, po
# Experimental: The rat tail-flick test was performed as described in: S. Furst et. al. J. Pharmacol. Exp. Ther. 2005, 312, 609-618
# [1] = pH-metric determination of pKa, logP and logD in octanol/water (PCA200/Cheqsol); format: physicochemical
# Experimental: All titrations were performed in 0.15M KCl solution under argon gas. The pKa was determined by the shape of the titration curve and partition coefficients were determined by the shift in titration curve of pKa in the presence of octanol. The analysis of pH-metric data was performed by RefinementPro software (version 2.0, Sirius, Sussex, UK).
# human MOR = target: T1, human MOR (Homo sapiens, UniProt P35372); assay: biochemical; format: biochemical
# T1 construct: expressed in transfected cells; host or cells: CHO cells
# Experimental: A number of compounds were evaluated for agonist potency and efficacy at the MOR using the [^35S]GTPγS functional assay in CHO cells expressing human MOR receptors.
# [2] = Permeation study through rat small intestine in Ussing type diffusion chambers; format: in vitro ADME; details: apical to basolateral, pH 7.5, no permeation enhancer, three hours incubation
# Experimental: Ussing type diffusion chambers with a surface area of 0.64 cm^2 were utilized. Rat small intestine was excised immediately after sacrificing the animal and mounted in the chamber. The donor and acceptor compartments of the chamber were filled with 1.0 ml of the freshly prepared incubation medium containing either 40 mM HEPES buffer (HEPES=2-(4-(2-hydroxyethyl)-1-piperazinyl)-ethane sulfonic acid) adjusted to pH 7.5 or 6.5 or 50 mM sodium acetate buffer adjusted to pH 5.5. […] The samples were centrifuged at 7,200 g for 5 minutes and the supernatant was analyzed via HPLC. Cumulative corrections were performed for the previously removed samples to determine the total amount permeated.
# [3] = system: mouse vas deferens preparation; assay: Mouse vas deferens bioassay; details: for IC50: Mus musculus, read-out: IC50, agonist potency in mouse vas deferens
# Experimental: The mouse vas deferens bioassay was performed as described in: M. Spetea et al., Eur. J. Pharmacol. 2004, 483, 301-308
# DOR = target: T2, DOR (Rattus norvegicus, UniProt P33533); assay: Opioid receptor binding, DOR, rat brain membranes; details: Binding Ki (nM) DOR, in vitro binding assay, rat brain membranes
# T2 construct: from tissue
# MOR = target: T3, MOR (Rattus norvegicus, UniProt P33535); assay: Opioid receptor binding, MOR, rat brain membranes; details: Binding Ki (nM) MOR, in vitro binding assay, rat brain membranes
# T3 construct: from tissue
# KOR = target: T4, KOR (Cavia porcellus, UniProt P41144); assay: Opioid receptor binding, KOR, guinea pig brain membranes; details: Binding Ki (nM) KOR, in vitro binding assay, guinea pig brain membranes
# T4 construct: from tissue
# [4] = Riba P. et al. 2010, cited from earlier work
# [5] = cited from earlier work
# [6] = 0.5 h, read-out: ED50 (p.o., mg/kg) 30 min, 30 min
# [7] = read-out: ED50 (p.o., mg/kg) 1 h, 1 h
# [8] = read-out: ED50 (p.o., mg/kg) 2 h, 2 h
# [9] = read-out: ED50 (p.o., mg/kg) 3 h, 3 h
# T1 sequence (P35372 whole entry): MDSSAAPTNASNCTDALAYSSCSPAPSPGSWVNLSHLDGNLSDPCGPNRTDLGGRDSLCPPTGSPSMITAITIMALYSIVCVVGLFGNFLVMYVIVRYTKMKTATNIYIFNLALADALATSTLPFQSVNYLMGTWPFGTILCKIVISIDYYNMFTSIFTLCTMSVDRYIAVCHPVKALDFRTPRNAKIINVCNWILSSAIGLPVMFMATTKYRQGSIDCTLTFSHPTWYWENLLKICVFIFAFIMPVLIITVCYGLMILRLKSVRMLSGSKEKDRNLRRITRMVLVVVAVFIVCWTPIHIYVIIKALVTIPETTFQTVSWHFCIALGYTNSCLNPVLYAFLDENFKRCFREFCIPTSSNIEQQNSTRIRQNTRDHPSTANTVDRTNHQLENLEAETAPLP
# T2 sequence (P33533 whole entry): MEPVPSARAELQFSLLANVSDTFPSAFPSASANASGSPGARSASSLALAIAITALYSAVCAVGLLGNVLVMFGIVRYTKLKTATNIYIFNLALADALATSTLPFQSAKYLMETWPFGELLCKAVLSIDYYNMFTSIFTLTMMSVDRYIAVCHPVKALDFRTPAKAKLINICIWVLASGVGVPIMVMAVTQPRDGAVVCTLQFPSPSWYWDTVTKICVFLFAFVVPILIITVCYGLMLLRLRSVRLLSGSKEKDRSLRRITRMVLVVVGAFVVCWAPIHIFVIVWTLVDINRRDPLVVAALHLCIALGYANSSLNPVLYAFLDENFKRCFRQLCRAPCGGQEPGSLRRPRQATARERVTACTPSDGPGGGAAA
# T4 sequence (P41144 whole entry): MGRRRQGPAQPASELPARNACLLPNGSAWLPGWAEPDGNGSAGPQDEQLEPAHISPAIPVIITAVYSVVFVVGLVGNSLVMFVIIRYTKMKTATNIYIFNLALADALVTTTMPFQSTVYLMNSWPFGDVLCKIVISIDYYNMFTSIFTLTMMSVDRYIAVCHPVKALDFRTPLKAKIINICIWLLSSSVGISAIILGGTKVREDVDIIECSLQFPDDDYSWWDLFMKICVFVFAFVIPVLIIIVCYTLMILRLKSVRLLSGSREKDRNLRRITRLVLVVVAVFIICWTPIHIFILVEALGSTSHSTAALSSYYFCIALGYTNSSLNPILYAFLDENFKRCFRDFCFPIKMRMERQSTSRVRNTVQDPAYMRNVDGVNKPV
# T3 sequence (P33535 whole entry): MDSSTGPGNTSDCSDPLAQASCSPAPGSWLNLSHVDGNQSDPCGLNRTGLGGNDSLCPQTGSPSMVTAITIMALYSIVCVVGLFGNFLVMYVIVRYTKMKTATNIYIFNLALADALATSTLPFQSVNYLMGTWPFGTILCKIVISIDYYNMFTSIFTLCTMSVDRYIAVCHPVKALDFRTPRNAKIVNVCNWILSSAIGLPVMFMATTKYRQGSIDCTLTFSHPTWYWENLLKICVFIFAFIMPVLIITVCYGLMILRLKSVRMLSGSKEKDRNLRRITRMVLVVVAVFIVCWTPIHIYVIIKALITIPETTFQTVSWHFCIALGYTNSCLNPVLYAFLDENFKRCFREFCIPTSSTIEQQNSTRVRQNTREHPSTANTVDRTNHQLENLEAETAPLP
smiles,measurement,setting,value
"CCO.CO[C@@]12CC[C@@H](NCC(=O)O)[C@@H]3Oc4c(O)ccc5c4[C@@]31CCN(C)[C@@H]2C5.Cl.Cl.O [HS731, 2-[(4,5α-EPOXY-3-HYDROXY-14β-METHOXY-17-METHYLMORPHINAN-6β-YL)AMINO]ACETIC ACID DIHYDROCHLORIDE HYDRATE ETHANOLATE]",ED50,rats; [6],21 mg/kg
same,ED50,rats; [7],5.52 mg/kg
same,ED50,rats; [8],6.78 mg/kg
same,ED50,rats; [9],6.33 mg/kg
same,pKa,"[1]; […] KCl solution (aqueous titration), 25° C., 0.15M KCl",2.4
same,logP,"[1]; octanol/water, 25° C.",-0.78
same,logD,"[1]; octanol/water, pH 7.4, 25° C.",-2.06
same,EC50,human MOR,3.88 nM
same,Emax,"human MOR; read-out: [35S]GTPγS binding, MOR % stim.",107%
same,permeation through rat intestinal mucosa,[2],11%
same,IC50,[3],7 nM
CCOC(=O)CN[C@@H]1CC[C@@]2(OC)[C@H]3Cc4ccc(O)c5c4[C@@]2(CCN3C)[C@H]1O5 [HS731-Et ester],Ki,DOR,0.81 nM
same,ED50,rats; [6],> 2.5 mg/kg
same,ED50,rats; [7],2.34 mg/kg
same,ED50,rats; [8],0.85 mg/kg
same,ED50,rats; [9],0.71 mg/kg
same,ED50,"rats; read-out: ED50 (p.o., mg/kg) 4 h, 4 h",0.82 mg/kg
same,"antinociceptive potency, fold higher than HS731 after 1 h","rats; p.o., 1 h, relative to HS731",ca. 2 fold
same,"antinociceptive potency, fold higher than HS731 after 2 h","rats; p.o., 2 h, relative to HS731",ca. 8 fold
same,"antinociceptive potency, fold higher than HS731 after 3 h","rats; p.o., 3 h, relative to HS731",ca. 9 fold
same,Ki,MOR,0.74 nM
same,IC50,[3],23.8 nM
same,times less potent than HS731 in mouse vas deferens bioassay,[3]; relative to HS731,about 3.5
same,Ki,KOR,21.9 nM
"CN1CC[C@]23c4c5ccc(O)c4O[C@H]2C(=O)CC[C@@]3(O)[C@H]1C5 [OMO, oxymorphone]",logD (pH = 7.4),"[4]; pH 7.4, published data",−0.32
same,logP,[4]; published data,0.67
same,pKa,[4]; published data,8.33
C[C@H]1CN(C[C@H](Cc2ccccc2)C(=O)NCC(=O)O)CC[C@@]1(C)c1cccc(O)c1 [alvimopan],oral bioavailability,[5],approx. 6%
